Where a name gives a salt, the structure may show the parent alone. Read-outs that look alike come from different tables or passages of the source.
Columns and labels:
[1] = system: A549 cells; test: Cytotoxicity against A549 cells, Alamar Blue; format: cell-based; conditions: Supplementary Table 1, compound 0.5 mM, percentage of controls (n=1); for viability at 500 µM: Homo sapiens, A549, 65 h
Procedure, shortened: (§1)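 Viability by Alamar Blue (5 h) after ~65 h drug treatment; seeding density 2 × 10^4 cells/well in DMEM supplemented with 10% FCS and 2 mM L-Glutamine.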

[2] = system: HeLa cells; test: cells; conditions: for viability at 500 µM: Homo sapiens, HeLa, 65 h; for HeLa Cells Alamar Blue: Supplementary Table 1
Procedure, shortened: as §1

[3] = read-out: HeLa Cells Alamar Blue
[4] = compound 0.5 mM, percentage of controls, mean ± SD (n=3) or SE (n=2)

SMILES | viability at 500 µM [1] [%] | viability at 500 µM [2, 3] [%] | A549 Cells Alamar Blue [1] | HeLa Cells Alamar Blue [2, 4] | viability at 500 µM ([2]; read-out: HeLa Cells Alamar Blue, Supplementary Table 1, compound 0.5 mM, percentage of controls, mean ± SD (n=3) or SE (n=2)) [%]
CCCc1ccc(NC(C)=O)cc1 [compound 426, N1‐(4‐propylphenyl)acetamide] | 71.7 | 89.8 ± 10.8 |  |  | 
Nc1ccccc1N1CCNCC1 [compound 429, 2‐piperazin‐1‐ylaniline] | 54.3 | 78.5 ± 7.7 |  |  | 
O=C(O)C1COc2ccccc2C1 (stereo not drawn) [compound 431, 3‐chromanecarboxylic acid] | 95.8 | 102 ± 5.9 |  |  | 
O=C(O)c1csc2ccccc12 [compound 432, 1‐benzothiophene‐3‐carboxylic acid] | 55.1 | 88.5 ± 12.2 |  |  | 
CC1(C)Cc2cccc(CO)c2O1 [compound 434, (2,2‐dimethyl‐2,3‐dihydro‐1‐benzofuran‐7‐yl)methanol] |  |  | 51.1 percentage of controls | 80.2 ± 12 percentage of controls | 
Nc1ccc(N2CCOCC2)cc1 [compound 435, 4‐morpholinoaniline] | 33.5 | 10.2 ± 6.9 |  |  | 
Nc1ccccc1N1CCOCC1 [compound 436, 2‐morpholinoaniline] | 56.4 | 79.1 ± 5.8 |  |  | 
OCc1ccc(N2CCCC2)nc1 [compound 437, [6‐(1‐pyrrolidinyl)‐3‐pyridinyl]methanol] | 44.3 | 9.3 ± 4.8 |  |  | 
OCc1ccnc(N2CCCC2)c1 [compound 438, (2‐pyrrolidin‐1‐ylpyrid‐4‐yl)methanol] | 71.9 | 103 ± 14.9 |  |  | 
CC(C)(C)C(=O)Nc1ccncc1 [compound 439, 2,2‐dimethyl‐N‐(4‐pyridinyl)propanamide] | 65 | 54.6 ± 4.5 |  |  | 
Cc1ccc2sc(CO)cc2c1 [compound 442, 5‐Methylbenzo[b]thiophene‐2‐methanol] | 53.7 | 71.3 ± 3.5 |  |  | 
CCN(CC)CCc1ccccn1 [compound 443, N,N‐diethyl‐N‐[2‐(2‐pyridyl)ethyl]amine] | 49.2 | 90.9 ± 9.8 |  |  | 
CCOC(=O)Cc1ccc(N)cc1 [compound 446, ethyl 2‐(4‐aminophenyl)acetate] | 63.2 | 80.1 ± 14.8 |  |  | 
Oc1cccc(N2CCOCC2)c1 [compound 447, 3‐morpholinophenol] | 62.8 | 77.8 ± 11.8 |  |  | 
Oc1ccccc1N1CCOCC1 [compound 448, 2‐morpholinophenol] | 71.1 | 93.3 ± 6.7 |  |  | 
COC(=O)Cc1cccc(OC)c1 [compound 451, methyl 2‐(3‐methoxyphenyl)acetate] | 93.2 | 101 ± 9.6 |  |  | 
COc1ccccc1CCC(=O)O [compound 452, 3‐(2‐methoxyphenyl)propanoic acid] | 61.6 | 97.3 ± 7.2 |  |  | 
OCc1ccc2c(c1)OCCCO2 [compound 453, 3,4‐dihydro‐2H‐1,5‐benzodioxepin‐7‐ylmethanol] |  |  | 51.6 percentage of controls | 86.6 ± 3.2 percentage of controls | 
N#Cc1ccc(-c2ccccc2)nc1 [compound 456, 6‐phenylnicotinonitrile] | 67.1 | 33.9 ± 6.9 |  |  | 
Fc1ccc(N2CCNCC2)cc1 [compound 457, 1‐(4‐fluorophenyl)piperazine] | 74.7 | 12.7 ± 10.1 |  |  | 
OCc1cc(-c2cccs2)[nH]n1 [compound 459, (5‐thien‐2‐yl‐1H‐pyrazol‐3‐yl)methanol] | 85 | 27.8 ± 10.9 |  |  | 
Nc1cccc(N)c1 [compound 461, benzene‐1,3‐diamine dihydrochloride] | 91.8 |  |  |  | 106 ± 10.7
OCc1cc(-c2cccs2)on1 [compound 462, [5‐(2‐thienyl)‐3‐isoxazolyl]methanol] | 76.2 | 75.6 ± 5.9 |  |  | 
COC(=O)c1cc2ccsc2[nH]1 [compound 463, methyl 6H‐thieno[2,3‐b]pyrrole‐5‐carboxylate] |  |  | 59.7 percentage of controls | 101.3 ± 11 percentage of controls | 
Cn1c(C(=O)O)cc2sccc21 [compound 464, 4‐methyl‐4H‐thieno[3,2‐b]pyrrole‐5‐carboxylic acid] |  |  | 89.4 percentage of controls | 93.5 ± 4.2 percentage of controls | 
O=C(O)CSCc1ccccc1 [compound 465, 2‐(benzylthio)acetic acid] | 67.9 | 99 ± 9.3 |  |  | 
COC(=O)CSc1ccccc1 [compound 466, methyl 2‐(phenylthio)acetate] | 84.7 | 102 ± 4.8 |  |  | 

Reference: publication PMC3199943, “Screening the MayBridge Rule of 3 Fragment Library for Compounds That Interact with the Trypanosoma brucei myo-Inositol-3-Phosphate Synthase and/or Show Trypanocidal Activity” (Molecular Biology International, 2011)
